ChEMBL document CHEMBL1201862, “PubChem BioAssay data set” (2004)
Activity calls are given as the source filed them.

Legend:
[1] = target: T1, Endoribonuclease toxin MazF (Escherichia coli K-12, UniProt P0AE70); assay: activation of MazEF endoribonuclease cleavage – biochemical, fluorescence, single-stranded RNA substrate, uHTS hits, dose response (AID 588481); assay type: functional
T1 sequence (P0AE70 whole entry): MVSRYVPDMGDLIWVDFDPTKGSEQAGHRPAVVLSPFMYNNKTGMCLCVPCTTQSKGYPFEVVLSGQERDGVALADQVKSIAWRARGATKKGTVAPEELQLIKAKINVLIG

[2] = target: T1, Endoribonuclease toxin MazF; assay: substrate-only fluorescence increase artefacts – biochemical, single-stranded RNase substrate, counter-screen for MazEF activator project, dose response (AID 588502); assay type: functional
[3] = target: T2, Serine/threonine-protein phosphatase (Candida dubliniensis (strain CD36 / CBS 7987 / NCPF 3949 / NRRLY-17841) (Yeast), UniProt B9W6M3); assay: blockers of CaCl2-induced CDRE-lacZ signaling – S. cerevisiae, luminescence, secondary, dose response (AID 2388); assay type: functional, cell-based;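 further: yeast reporter cells carrying a calcineurin-responsive lacZ construct stimulated with calcium chloride; luminescent beta-galactosidase reporter signal in whole cells rather than isolated phosphatase activity; potency for inhibition where a drop in reporter signal means calcineurin blockade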
T2 sequence (B9W6M3 whole entry): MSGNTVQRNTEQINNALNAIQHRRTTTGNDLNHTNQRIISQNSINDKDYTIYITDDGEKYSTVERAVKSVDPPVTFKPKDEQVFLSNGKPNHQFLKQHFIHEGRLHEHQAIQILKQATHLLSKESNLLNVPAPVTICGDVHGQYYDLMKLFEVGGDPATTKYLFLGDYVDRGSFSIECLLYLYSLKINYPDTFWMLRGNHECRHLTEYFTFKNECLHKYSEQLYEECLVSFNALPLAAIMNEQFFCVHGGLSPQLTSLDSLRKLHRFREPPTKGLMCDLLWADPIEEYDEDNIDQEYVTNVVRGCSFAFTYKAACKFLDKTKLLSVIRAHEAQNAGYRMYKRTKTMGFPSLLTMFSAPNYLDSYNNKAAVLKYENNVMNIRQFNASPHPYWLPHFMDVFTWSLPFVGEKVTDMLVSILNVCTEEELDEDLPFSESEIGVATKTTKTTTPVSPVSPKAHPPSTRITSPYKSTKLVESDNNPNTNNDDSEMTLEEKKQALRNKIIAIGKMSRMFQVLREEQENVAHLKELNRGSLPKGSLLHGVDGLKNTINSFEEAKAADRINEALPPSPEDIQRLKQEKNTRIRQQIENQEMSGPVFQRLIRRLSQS

[4] = fluconazole-exposed Candida albicans growth modulators – fluorescence, retest, confirmation (AID 2467); assay type: functional, cell-based
INS1 = assay: INS-1E survival protection against cytokine death – cell-based, luminescence, retest, dose response (AID 449756); assay type: functional; conditions: Rattus norvegicus;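 further: cell death triggered by IL-1 beta plus TNF-alpha plus IFN-gamma mixture; protective hits raise ATP signal compared with cytokine alone wells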
[5] = target: FAD-linked sulfhydryl oxidase ALR (Homo sapiens, UniProt P55789); assay: ALR-catalysed DTT oxidation blockers – biochemical, H2O2 detection, luminescence, cherry-pick, dose response (AID 493248)
Sequence of FAD-linked sulfhydryl oxidase ALR (P55789 whole entry): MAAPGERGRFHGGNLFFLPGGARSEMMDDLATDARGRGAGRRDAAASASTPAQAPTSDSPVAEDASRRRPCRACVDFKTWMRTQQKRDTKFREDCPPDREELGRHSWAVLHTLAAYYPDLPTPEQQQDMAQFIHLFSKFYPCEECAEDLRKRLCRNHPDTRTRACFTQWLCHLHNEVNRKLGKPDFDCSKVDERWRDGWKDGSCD

[6] = NIH-3T3 fibroblast cytotoxicity, dose response, cytotoxicity control, cell-based, fluorescence, Alamar Blue, secondary assay (AID 2327); assay type: functional;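 further: NIH-3T3 mouse fibroblasts cultured with fluconazole at 8 µg/mL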
[7] = target: ATP-dependent molecular chaperone HSP82 (Candida albicans (strain WO-1) (Yeast), UniProt C4YTQ8); assay: steroid-induced GRE reporter decrease in yeast – S. cerevisiae, luminescence, Hsp90 inhibitor project, dose response (AID 2400); assay type: functional, cell-based;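 further: beta-galactosidase luminescence from glucocorticoid response element reporter as proxy for Hsp90 function; inhibitor potency where signal loss means Hsp90 inhibition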
Sequence of ATP-dependent molecular chaperone HSP82 (C4YTQ8 whole entry): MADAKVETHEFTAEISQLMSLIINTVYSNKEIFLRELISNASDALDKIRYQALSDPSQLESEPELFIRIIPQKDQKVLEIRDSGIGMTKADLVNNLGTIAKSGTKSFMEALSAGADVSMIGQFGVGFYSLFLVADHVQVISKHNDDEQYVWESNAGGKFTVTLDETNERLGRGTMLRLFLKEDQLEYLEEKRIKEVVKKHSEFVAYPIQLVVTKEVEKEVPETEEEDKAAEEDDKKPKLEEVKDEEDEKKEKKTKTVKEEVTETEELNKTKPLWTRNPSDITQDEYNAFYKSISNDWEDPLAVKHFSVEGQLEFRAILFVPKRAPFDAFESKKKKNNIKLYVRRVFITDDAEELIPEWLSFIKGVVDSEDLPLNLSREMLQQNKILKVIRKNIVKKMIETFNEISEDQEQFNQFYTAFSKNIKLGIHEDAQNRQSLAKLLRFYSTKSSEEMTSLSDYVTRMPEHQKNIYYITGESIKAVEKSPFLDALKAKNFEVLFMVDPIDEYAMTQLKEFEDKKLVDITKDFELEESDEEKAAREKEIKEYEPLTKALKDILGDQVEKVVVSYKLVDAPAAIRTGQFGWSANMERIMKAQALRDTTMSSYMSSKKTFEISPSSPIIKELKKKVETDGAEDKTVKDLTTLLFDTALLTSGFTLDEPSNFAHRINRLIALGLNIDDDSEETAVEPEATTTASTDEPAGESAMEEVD

Nonstructural protein 1 = Nonstructural protein 1 (Influenza A virus, UniProt Q194T2); assay type: functional, Influenza A virus (A/California/07/2009(H1N1))
Sequence of Nonstructural protein 1 (Q194T2 whole entry): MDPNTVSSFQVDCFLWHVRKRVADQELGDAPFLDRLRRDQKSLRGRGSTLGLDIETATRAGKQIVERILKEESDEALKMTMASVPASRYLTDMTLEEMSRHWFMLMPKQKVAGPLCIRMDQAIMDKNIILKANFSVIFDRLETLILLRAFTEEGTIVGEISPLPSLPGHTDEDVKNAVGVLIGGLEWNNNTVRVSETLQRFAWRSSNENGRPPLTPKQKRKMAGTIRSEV

Cytochrome P450 3A4 = Cytochrome P450 3A4 (Homo sapiens, UniProt P08684);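 further: CYP3A4 tested as one member of a cytochrome P450 panel screen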
Sequence of Cytochrome P450 3A4 (P08684 whole entry): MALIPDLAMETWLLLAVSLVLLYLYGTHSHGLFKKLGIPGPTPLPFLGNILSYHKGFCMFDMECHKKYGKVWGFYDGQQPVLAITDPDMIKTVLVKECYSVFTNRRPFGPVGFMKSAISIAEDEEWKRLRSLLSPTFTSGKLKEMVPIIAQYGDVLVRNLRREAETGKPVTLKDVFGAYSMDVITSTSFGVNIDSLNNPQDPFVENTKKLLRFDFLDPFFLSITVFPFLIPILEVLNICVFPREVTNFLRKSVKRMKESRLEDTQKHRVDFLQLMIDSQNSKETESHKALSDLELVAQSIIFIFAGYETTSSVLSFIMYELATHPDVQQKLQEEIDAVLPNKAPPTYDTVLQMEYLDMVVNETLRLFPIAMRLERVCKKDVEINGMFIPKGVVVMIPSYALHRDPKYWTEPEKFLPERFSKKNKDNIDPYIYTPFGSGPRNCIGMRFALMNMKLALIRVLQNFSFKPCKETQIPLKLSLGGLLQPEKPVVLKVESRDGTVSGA

Cytochrome P450 2C19 = Cytochrome P450 2C19 (Homo sapiens, UniProt P33261); assay: Cytochrome panel assay with activity outcomes. Panel member name: p450-cyp2c19 Compounds with AC50 equal or less than 10 uM are considered active; assay type: functional; conditions: read-out: AC50
Sequence of Cytochrome P450 2C19 (P33261 whole entry): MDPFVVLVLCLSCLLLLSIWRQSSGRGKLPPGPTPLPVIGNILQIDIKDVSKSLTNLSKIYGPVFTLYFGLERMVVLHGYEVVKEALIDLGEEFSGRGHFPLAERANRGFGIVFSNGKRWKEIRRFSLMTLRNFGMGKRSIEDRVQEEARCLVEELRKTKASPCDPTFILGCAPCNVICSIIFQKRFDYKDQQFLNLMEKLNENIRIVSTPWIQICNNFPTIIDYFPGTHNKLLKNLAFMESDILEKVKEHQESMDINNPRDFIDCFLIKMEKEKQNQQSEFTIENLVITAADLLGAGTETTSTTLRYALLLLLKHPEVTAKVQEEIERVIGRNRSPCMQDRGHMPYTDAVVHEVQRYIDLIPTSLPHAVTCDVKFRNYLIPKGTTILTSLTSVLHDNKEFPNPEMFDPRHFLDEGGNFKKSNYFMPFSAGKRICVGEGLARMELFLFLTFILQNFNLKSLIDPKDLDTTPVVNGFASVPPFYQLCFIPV

Cytochrome P450 2D6 = Cytochrome P450 2D6 (Homo sapiens, UniProt P10635);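 further: CYP2D6 member of a cytochrome P450 panel assay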
Sequence of Cytochrome P450 2D6 (P10635 whole entry): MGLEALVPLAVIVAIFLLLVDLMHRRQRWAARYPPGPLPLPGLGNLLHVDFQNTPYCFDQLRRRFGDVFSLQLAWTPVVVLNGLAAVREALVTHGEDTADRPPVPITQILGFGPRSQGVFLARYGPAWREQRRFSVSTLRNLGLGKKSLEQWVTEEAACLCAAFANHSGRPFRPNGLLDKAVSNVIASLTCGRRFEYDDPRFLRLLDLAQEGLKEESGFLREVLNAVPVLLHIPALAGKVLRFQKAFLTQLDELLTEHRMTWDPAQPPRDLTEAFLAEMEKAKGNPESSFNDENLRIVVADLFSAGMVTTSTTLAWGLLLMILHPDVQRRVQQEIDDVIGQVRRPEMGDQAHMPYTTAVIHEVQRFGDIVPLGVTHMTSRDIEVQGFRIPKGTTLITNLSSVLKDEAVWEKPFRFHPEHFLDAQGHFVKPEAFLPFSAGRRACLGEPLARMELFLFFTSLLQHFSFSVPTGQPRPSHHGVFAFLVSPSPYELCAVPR

[8] = microbe, parasite or virus in culture; assay type: functional; conditions: Mycobacterium tuberculosis
Genome polyprotein = Genome polyprotein (dengue virus type 2, UniProt P29990); assay: flavivirus cap methylation enzyme inhibition – biochemical, confirmation dose response, primary screen (AID 588689); assay type: functional
Sequence of Genome polyprotein (P29990 2492-3391 limits assumed): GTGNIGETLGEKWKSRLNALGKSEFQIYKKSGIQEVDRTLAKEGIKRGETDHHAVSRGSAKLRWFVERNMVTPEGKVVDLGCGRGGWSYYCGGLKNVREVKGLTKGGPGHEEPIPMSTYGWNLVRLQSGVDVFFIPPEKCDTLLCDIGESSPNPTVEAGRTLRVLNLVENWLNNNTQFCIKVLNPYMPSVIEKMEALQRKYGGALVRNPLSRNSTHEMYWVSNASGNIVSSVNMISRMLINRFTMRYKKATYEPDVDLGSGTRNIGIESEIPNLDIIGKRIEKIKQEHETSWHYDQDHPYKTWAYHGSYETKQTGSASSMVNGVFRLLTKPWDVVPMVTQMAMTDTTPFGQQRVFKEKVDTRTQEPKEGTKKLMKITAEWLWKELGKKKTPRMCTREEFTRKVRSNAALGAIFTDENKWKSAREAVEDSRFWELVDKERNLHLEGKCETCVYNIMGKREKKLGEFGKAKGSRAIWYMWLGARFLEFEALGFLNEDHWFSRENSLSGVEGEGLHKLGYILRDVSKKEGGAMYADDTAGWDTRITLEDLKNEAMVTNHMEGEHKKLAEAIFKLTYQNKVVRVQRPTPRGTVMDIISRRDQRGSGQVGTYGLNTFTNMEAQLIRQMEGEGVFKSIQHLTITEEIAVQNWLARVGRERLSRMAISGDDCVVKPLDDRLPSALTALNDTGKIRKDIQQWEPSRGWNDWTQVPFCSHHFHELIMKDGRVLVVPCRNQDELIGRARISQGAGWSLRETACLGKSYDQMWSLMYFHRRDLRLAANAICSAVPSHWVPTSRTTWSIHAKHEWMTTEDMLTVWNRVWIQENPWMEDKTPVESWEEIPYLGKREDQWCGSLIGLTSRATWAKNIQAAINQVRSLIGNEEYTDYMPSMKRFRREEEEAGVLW

Caspase-3 = target: T3, Caspase-3 (Homo sapiens, UniProt P42574); assay type: functional;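 further: Dose-response selectivity test against caspase-3 for candidate inhibitors of sentrin-specific proteases (SENPs)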
T3 sequence (P42574 whole entry): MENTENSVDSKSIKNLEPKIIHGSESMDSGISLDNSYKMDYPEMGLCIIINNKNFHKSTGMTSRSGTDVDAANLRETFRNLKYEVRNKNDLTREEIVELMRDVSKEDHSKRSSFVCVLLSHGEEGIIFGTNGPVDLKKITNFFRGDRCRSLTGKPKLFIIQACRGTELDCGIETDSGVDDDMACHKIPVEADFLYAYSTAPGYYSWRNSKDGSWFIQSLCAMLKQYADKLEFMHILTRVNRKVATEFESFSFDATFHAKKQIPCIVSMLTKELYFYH

[9] = target: T4, Sentrin-specific protease 7 (Homo sapiens, UniProt Q9BQF6); assay type: functional;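 further: Luminescence-based dose-response confirmation of ultra-high-throughput screening hits, measuring inhibition of SENP7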
T4 sequence (Q9BQF6 whole entry): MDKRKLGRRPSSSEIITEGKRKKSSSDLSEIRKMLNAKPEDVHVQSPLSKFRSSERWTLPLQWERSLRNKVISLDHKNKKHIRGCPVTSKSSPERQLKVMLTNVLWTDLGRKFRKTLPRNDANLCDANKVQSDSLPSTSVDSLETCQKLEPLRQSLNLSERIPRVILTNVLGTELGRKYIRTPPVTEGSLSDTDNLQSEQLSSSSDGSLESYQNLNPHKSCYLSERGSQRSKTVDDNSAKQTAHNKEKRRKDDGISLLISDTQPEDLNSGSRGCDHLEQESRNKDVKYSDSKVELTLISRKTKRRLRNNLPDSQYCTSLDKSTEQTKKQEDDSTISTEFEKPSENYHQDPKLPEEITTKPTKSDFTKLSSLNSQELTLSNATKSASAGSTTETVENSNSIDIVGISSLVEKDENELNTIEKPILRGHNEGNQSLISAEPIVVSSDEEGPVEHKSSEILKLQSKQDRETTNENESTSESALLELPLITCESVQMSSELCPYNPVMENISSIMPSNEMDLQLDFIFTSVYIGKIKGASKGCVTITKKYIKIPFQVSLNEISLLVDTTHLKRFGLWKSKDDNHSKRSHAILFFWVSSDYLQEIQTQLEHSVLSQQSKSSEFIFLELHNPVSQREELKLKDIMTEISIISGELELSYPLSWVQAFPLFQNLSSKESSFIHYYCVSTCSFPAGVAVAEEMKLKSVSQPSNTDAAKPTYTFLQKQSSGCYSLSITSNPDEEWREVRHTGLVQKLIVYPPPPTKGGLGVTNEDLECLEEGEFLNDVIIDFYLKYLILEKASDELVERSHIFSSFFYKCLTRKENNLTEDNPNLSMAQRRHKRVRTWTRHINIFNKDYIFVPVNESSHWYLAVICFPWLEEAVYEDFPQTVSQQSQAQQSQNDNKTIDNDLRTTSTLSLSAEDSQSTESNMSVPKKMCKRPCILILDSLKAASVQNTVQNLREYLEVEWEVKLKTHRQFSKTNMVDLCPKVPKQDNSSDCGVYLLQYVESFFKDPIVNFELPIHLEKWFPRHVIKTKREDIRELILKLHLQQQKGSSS

[10] = target: T5, Sentrin-specific protease 6 (Homo sapiens, UniProt Q9GZR1); assay type: functional;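 further: Luminescence-based dose-response confirmatory assay of SENP6 inhibition, following up an ultra-high-throughput screen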
T5 sequence (Q9GZR1 whole entry): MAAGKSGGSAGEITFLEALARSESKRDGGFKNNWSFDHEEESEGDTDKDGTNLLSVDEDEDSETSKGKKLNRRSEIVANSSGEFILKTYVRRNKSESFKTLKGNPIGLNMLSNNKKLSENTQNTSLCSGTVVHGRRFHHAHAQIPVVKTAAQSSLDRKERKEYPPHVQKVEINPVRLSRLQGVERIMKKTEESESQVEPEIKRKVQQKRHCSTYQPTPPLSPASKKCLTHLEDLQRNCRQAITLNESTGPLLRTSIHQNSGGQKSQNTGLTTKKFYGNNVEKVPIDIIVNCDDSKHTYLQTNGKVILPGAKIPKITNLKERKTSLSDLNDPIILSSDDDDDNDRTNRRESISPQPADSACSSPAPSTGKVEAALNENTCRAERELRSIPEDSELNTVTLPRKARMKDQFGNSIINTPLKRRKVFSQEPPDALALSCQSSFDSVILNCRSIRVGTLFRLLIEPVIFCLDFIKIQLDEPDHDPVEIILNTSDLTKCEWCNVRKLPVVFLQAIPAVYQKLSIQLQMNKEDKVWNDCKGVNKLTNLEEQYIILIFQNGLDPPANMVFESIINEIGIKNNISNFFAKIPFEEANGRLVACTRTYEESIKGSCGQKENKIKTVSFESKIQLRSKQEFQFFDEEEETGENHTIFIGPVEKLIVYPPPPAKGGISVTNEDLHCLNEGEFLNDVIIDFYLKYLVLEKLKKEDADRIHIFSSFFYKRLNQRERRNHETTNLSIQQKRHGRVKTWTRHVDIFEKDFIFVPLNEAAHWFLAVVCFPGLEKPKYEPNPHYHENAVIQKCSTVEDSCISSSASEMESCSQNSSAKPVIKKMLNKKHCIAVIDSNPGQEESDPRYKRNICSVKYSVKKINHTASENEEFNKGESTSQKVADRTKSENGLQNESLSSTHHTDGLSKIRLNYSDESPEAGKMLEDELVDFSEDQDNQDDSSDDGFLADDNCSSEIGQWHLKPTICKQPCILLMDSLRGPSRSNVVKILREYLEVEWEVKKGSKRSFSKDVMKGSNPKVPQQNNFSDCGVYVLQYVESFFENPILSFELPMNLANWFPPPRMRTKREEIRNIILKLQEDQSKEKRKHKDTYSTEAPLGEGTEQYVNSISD

[11] = target: T6, Oxysterols receptor LXR-beta (Homo sapiens, UniProt P55055); assay type: functional, cell-based;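 further: agonist activity at LXR measured by a cell-based luminescence readout across a dose range, run as a counterscreen for daf-12 agonists; HEK293 cells with Gal4-LXR fusion and GAL4-driven luciferase reporter; potency for activation of Gal4-LXR reporter so compounds are agonists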
T6 sequence (P55055 whole entry): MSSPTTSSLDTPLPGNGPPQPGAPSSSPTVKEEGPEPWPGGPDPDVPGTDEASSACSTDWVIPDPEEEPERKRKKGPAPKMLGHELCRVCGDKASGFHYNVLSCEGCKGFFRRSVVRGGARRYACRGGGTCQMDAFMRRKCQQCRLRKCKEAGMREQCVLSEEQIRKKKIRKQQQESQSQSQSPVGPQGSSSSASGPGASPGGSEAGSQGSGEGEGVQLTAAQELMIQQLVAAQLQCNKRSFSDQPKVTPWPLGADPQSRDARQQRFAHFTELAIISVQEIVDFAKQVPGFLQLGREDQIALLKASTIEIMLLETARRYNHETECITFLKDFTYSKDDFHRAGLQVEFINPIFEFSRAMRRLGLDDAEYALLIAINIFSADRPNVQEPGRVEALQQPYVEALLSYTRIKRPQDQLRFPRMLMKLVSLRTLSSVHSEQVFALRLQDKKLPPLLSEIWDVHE

[12] = target: T7, Sentrin-specific protease 8 (Homo sapiens, UniProt Q96LD8); assay type: functional;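 further: luminescence read-out of SENP8 inhibition, dose-response confirmation following an ultra-high-throughput screen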
T7 sequence (Q96LD8 whole entry): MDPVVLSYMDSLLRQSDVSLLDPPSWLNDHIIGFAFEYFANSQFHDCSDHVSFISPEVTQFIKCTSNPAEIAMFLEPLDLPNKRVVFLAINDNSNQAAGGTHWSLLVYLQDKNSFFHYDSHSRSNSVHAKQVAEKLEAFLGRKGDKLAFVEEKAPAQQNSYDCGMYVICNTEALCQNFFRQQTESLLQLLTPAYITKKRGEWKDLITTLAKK

## COc1cccc(C2=CC(c3ccc(N(C)C)cc3)n3nnnc3N2)c1 (stereo unspecified)
[1]
  EC50: > 99 µM (inactive)
[2]
  EC50: > 99 µM (inactive)

## Oc1ccc(N=Nc2nccs2)c(O)c1
[3]
  EC50: > 180 µM (inactive)
[4]
  EC50: 1.19 µM (active)
INS1
  AC50: 2.78 µM (active)
[5]
  AC50: 4.55 µM (active)
[6]
  EC50: 16 µM (inconclusive)
[7]
  EC50: 21.8 µM (active)
Nonstructural protein 1
  IC50: 11.4 µM (active)

## O=C(Nc1cccc(F)c1)N1CCC2(CC1)CCN(C(=O)c1ccco1)CC2
Cytochrome P450 3A4
  AC50: inconclusive
Cytochrome P450 2C19
  AC50: 10 µM (inconclusive)

## O=C(c1cc(C(F)(F)F)cc(C(F)(F)F)c1)N1CCC2(CCN(Cc3nccs3)CC2)CC1
Cytochrome P450 2D6
  AC50: 10 µM (inconclusive)
Cytochrome P450 3A4
  AC50: inconclusive

## CSC1=N/C(=C\c2ccc(C)s2)C(=O)S1
[1]
  EC50: 89.7 µM (inactive)
[2]
  EC50: 72 µM (inactive)

## O=[N+]([O-])c1nn(-c2ccc(Cl)cc2)[n+]([O-])c1NCc1cccnc1
[8]
  CC50: > 40 µM (active)
[3]
  EC50: > 180 µM (inactive)
[4]
  EC50: 1.11 µM (active)
[6]
  EC50: > 160 µM (inactive)
[7]
  EC50: > 150 µM (inactive)

## C=CCOc1ccc(/C=C2/C(=O)ON=C2C)cc1OCC
Genome polyprotein
  IC50: > 100 µM (active)

## CCOc1ccc2nc(NC(=O)Nc3cccs3)sc2c1
Caspase-3
  IC50: 29.9 µM (active)
[9]
  IC50: 8.66 µM (active)
[10]
  IC50: 19.2 µM (active)
[11]
  EC50: > 67.5 µM (inactive)
[12]
  IC50: 24.1 µM (active)
